Experimental data published in patent publication US20110171230A1, “Method of Identifying Agents that Promote Axonal Development” (The Johns Hopkins University, priority 2008, published 2011).

Tests used:
[1] = tested on: TRPC1 binding to GST-Homer; assay: GST-Homer pull-down of TRPC1 from lysates of treated HEK293 cells; type: cell-based, human; conditions: HEK293 cells transfected with HA-TRPC1 and FKBP52, GPI-1046 1 nM, 100 nM, 500 nM, 1 μM for 30 min
Protocol: GST pull-down, Co-IP and immunocytochemistry. Protein binding assays were done as previously described (Yuan et al., Cell 114:777-89, 2003). Transfected cells were harvested and lysed using 500 μl of binding buffer (1×PBS buffer containing 1 mM NaVO3, 10 mM NaPyrophosphate, 50 mM NaF [pH 7.4], and 1% Triton X-100). The cell extracts were sonicated, and insoluble material was spun down at 30,000 g for 20 min. For GST pull-down, GST-H3 EVH was expressed in BL21 bacterial cells by growing a 400 ml culture at 37 C until […] was 0.4-0.6. Cells were induced with […] IPTG for an additional hour, harvested, lysed in […] of 1% Triton X-100 in 1×PBS+[…] PMSF, sonicated 3×10 strokes, and spun down at 12,000 g for 5 min. The supernatant was mixed 1:1 with a slurry of GST-agarose beads (Sigma) for 30 min at 4 C. Beads were washed 2 times with 1% Triton X-100 in 1×PBS and 2 times with 1×PBS. 50 μl of 1:1 slurry of GST-H3 EVH beads were used per 100 μl cell extract and rocked for 2 hr at 4° C. For co-IP experiments, 1 μg of purified antibody or 2 μl of crude antiserum was added to 100 μl of cell extract and incubated for 1 hr at 4° C. Then, 1:1 slurry of protein A or G SEPHAROSE 4B beads were added to the antibody-extract mix and incubated for an additional hour at 4° C. […]

[2] = tested on: growth cones of Xenopus spinal neurons; assay: Ca2+ imaging of growth cones of cultured spinal neurons (netrin-1-induced Ca2+ rise); type: cell-based
Protocol: Ca^2+ imaging of cultured spinal neurons. Ca^2+ imaging of growth cones of Xenopus spinal neurons was carried out as previously described (Ming et al., Nature 417:411-8, 2002; and Ming et al., Neuron 19:1225-35, 1997). Specifically, isolated Xenopus spinal neurons were loaded with Fluo-4 AM (2 μM, Molecular Probes) in the culture media without serum for 30 min at room temperature, and rinsed with the media for growth cone turning assay. Ca^2+ imaging was performed using a Zeiss 510 META system equipped with a 20× objective (NA 0.8). Excitation was at 488 nm by argon laser and the emitted fluorescence was collected at […]. Fluorescence and bright-field images were simultaneously acquired at every 30 seconds with a frame scan. The fluorescence intensity of each time point was measured over a fixed rectangular region of interest that covers the entire growth cone and normalized to the average fluorescence intensity that was measured during a 5 min baseline period (prior to netrin-1 application).

[3] = tested on: growth cones of Xenopus spinal neurons; assay: Growth cone turning assay in a netrin-1 gradient; type: cell-based; conditions: for growth cone turning response in a GPI-1046 gradient: GPI-1046 100 μM in the pipette
Protocol: Growth cone turning assay. Microscopic gradients of netrin-1 (5 μg/ml in the pipette), MAG (150 μg/ml in the pipette) and GPI-1046 (100 μM in the pipette) were produced as previously described (Lohof et al., J Neurosci 12:1253-61, 1992; and Zheng et al., Nature 368:140-4, 1994). […] Xenopus spinal neurons were used 14 to 20 hrs after plating and neurons with the lineage-tracer were identified under fluorescent microscope and used for turning assay at room temperature as previously described (Ming et al., Nature 417:411-8, 2002; Ming et al., Neuron 19:1225-35, 1997; Lohof et al., J Neurosci 12:1253-61, 1992; and Zheng et al., Nature 368:140-4, 1994). GFP^+ hippocampal neurons were used 48-72 hours after plating and individual axon was identified for turning assay at the room temperature. The turning angle was defined by the angle between the original direction of neurite extension and a straight line connecting the positions of the center of the growth cone at the onset and the end of the 30 min period. The rates of neurite extension were calculated based on the net neurite extension during the turning assay. Only those growth cones of isolated neurons with a net neurite extension >5 μm over the 30-min period were included for analysis. Statistical significance was assessed using the Kolmogorov-Smirnov test.

[4] = tested on: axonal growth cones of rat hippocampal neurons; assay: Growth cone turning assay in a MAG gradient; type: cell-based; conditions: MAG 150 μg/ml in the pipette
Protocol: Primary hippocampal neuronal cultures and transfection. Hippocampal neurons were isolated from postnatal rats (P3-P5) and were cultured on poly-L-lysine coated coverslips as previously described (Song et al., Nature 417:39-44, 2002). These neurons were transfected with the AMAXA transfection system following protocols from the manufacturer. Briefly, hippocampal neurons were isolated and 100 μl of nucleofector solution was added to resuspend the cell pellet. Different expression constructs (1-5 μg), GFP, FKBP52-FD67DV, TRPC1-P645A or a combination of TRPC1-P645A and FKBP52-WT, were added to the cell suspension and then transferred to cuvettes for electroporation. The cells were cultured in DMEM with 10% fetal bovine serum for 24 hrs before changing to serum-free neurobasal medium (Song et al., Nature 417:39-44, 2002). Growth cone turning assay. Microscopic gradients of netrin-1 (5 μg/ml in the pipette), MAG (150 μg/ml in the pipette) and GPI-1046 (100 μM in the pipette) were produced as previously described (Lohof et al., J Neurosci 12:1253-61, 1992; and Zheng et al., Nature 368:140-4, 1994). […] The rates of neurite extension were calculated based on the net neurite extension during the turning assay. […] Statistical significance was assessed using the Kolmogorov-Smirnov test.

[5] = tested on: commissural interneuron axons in developing Xenopus embryos; assay: Commissural interneuron axon midline guidance in developing spinal cord (3A10 immunostaining); type: in vivo
Protocol: Xenopus embryo injection and cell culture. Blastomere injections of morpholino oligos or mRNAs encoding TRPC1, FKBP52 or their mutant forms into early stages of Xenopus embryos and culturing of spinal neurons from these injected embryos were performed as previously described (Shim et al., Nat Neurosci 8:730-5, 2005). Specifically, fertilized embryos were injected at the one- or two-cell stage, with a mixture of the morpholino (10 ng/embryo) or mRNA (2-3 ng/embryo), and a lineage tracer. The following DNA constructs were subcloned into the pCS2 vector and used for in vitro transcription with the mMESSAGE mMACHINE SP6 kit (Ambion): Myc-FKBP52-WT, Myc-FKBP52-FD67DV, HA-TRPC1-WT, HA-TRPC1-P645L, HA-TRPC1-P645A, GFP-XTRP C1. A morpholino oligo directed against Xenopus DCC (XDCC-MO) was designed with the following sequence: 5′ […] 3′. Injected embryos at stage 22 were used for cultures of spinal neurons as previous described (Shim et al., Nat Neurosci 8:730-5, 2005).
Whole-mount immunocytochemistry and confocal imaging. Embryos at stage 23-28 were fixed and processed for immunocytochemistry as previously described (Shim et al., Nat Neurosci 8:730-5, 2005; and Gomez et al., Nature 397:350-5, 1999). […] Statistical significance was assessed using the Bootstrap test and accepted if p <0.01.

FKBPs = conditions: Steiner et al., PNAS 94:2019-24, 1997; cited from earlier work
calcineurin = conditions: Steiner et al., PNAS 94:2019-24, 1997; cited from earlier work

| Molecule | TRPC1 binding to GST-Homer [1] | netrin-1-induced Ca2+ rise in growth cones ([2]; Xenopus spinal neurons, Fluo-4, netrin-1 5 ng/ml, GPI-1046 100 nM in bath) | growth cone turning response in a GPI-1046 gradient ([3]; uniform netrin-1 10 ng/ml in the bath) | growth cone turning response in a GPI-1046 gradient ([3]; without uniform netrin-1 stimulation) | growth cone turning response in a netrin-1 gradient ([3]; netrin-1 5 μg/ml in the pipette, bath application of 100 nM, 30 min) | MAG-induced growth cone repulsion [4] | commissural interneuron axon midline guidance ([5]; 0.5 μM applied to Xenopus embryos between stage 22-25) | inhibition of FKBP isomerase activity (FKBPs) | inhibition of calcineurin (calcineurin) | netrin-1-induced Ca2+ rise in growth cones ([2]; neurons from embryos injected with morpholino (10 ng/embryo)) | commissural interneuron axon midline guidance ([5]; morpholino injected at the one-cell stage, stage 25 embryos) |
| --- | --- | --- | --- | --- | --- | --- | --- | --- | --- | --- | --- |
| CCC(C)(C)C(=O)C(=O)N1CCC[C@H]1C(=O)OCCCc1cccnc1 [GPI-1046, 3-(3-pyridyl)-1-propyl (2S)-1-(3,3-dimethyl-1,2-dioxopentyl)-2-pyrrolidinecarboxylate] | increased TRPC1 binding to GST-Homer | abolished netrin-1-induced Ca^2+ rise | significant repulsive turning responses | no bias in the direction of growth cone extension | blocked netrin-1-induced attraction | abolished MAG-induced repulsion | significant guidance defects | inhibits their isomerase activity | does not inhibit calcineurin | – | – |
| XDCC-MO: morpholino oligo directed against Xenopus DCC, 5′ CCAAGACAATTCTCCATATTTCAGC 3′ (all phosphorodiamidate morpholino (PMO)) | – | – | – | – | – | – | – | – | – | abolished netrin-1-induced Ca^2+ rise | failed to reach the midline |
